According to patent EP4653451A1, “POLYPEPTIDE COMPOUND AND USE THEREOF” (Chengdu New Radiomedicine Technology Co., Ltd., priority 2023, dated 2024):
Where a name gives a salt, the structure may show the parent alone. Numbered stars: 1 amine (or outer) side, 2 acyl side, 3 side chain; on linkers, the order of the positions; unused ones are H or OH. Bridge positions count the residues as written; N and C are the ends. Square brackets hold non-standard residues; d marks the D form. Peptide text beside a SMILES is read from it. * marks the point of attachment. TBMB(SCH2CH2NH-DOTA) = O=C(O)CN1CCN(CC(=O)O)CCN(CC(=O)NCCSCc2cc(C[*:1])cc(C[*:2])c2)CCN(CC(=O)O)CC1; 1Nal = N[C@@H](Cc1cccc2ccccc12)C(=O)O; β3hC = N[C@@H](CS)CC(=O)O; Hexanoyl = CCCCCC(=O)*

How the values were obtained:
[1] = biological target: T1, human recombinant DPP4 protein (Homo sapiens, UniProt P27487); test: Inhibitory activity against DPP4 protease activity (H-Gly-Pro-AMC fluorescence); format: biochemical; details: 125 pM DPP4 working solution, 90 min at room temperature
T1 construct: purchased Acrobiosystems DP4-H5211
Procedure, shortened: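 125 pM DPP4 working solution and 250 µM H-Gly-Pro-AMC working solution (stock levels, not final) in 20 mM Tris-HCl, 100 mM NaCl, mixed with compound in 4-fold dilution series. Reaction 90 min at room temperature in the dark; AMC fluorescence read at ex 380/em 460 nm, IC50 fitted from the concentration series.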

in vitro = details: CD-1, mouse, plasma
Description: The plasma stability experiment was performed using plasma from CD-1 mice. The compounds were diluted to a concentration of 1 mM with methanol. To 0.792 mL of plasma, 8.00 µL of 1 mM of each test compound was added, and 50.0 µL of the plasma sample was taken after uniform mixing. The remaining sample was placed in a 37°C water bath and incubated for 24 h. […] After centrifugation, the sample was diluted 1-fold with 0.2% trifluoroacetic acid and analyzed by LC-MS/MS.

[2] = biological target: T2, human recombinant FAP protein (Homo sapiens, UniProt Q12884); test: Inhibitory activity against FAP protease activity (Z-Gly-Pro-AMC fluorescence); format: biochemical; details: 125 pM FAP working solution, 90 min at room temperature; read-out: FAP IC50
T2 construct: purchased Acrobiosystems FAP-H82Q6
T2 sequence (Q12884 1-760): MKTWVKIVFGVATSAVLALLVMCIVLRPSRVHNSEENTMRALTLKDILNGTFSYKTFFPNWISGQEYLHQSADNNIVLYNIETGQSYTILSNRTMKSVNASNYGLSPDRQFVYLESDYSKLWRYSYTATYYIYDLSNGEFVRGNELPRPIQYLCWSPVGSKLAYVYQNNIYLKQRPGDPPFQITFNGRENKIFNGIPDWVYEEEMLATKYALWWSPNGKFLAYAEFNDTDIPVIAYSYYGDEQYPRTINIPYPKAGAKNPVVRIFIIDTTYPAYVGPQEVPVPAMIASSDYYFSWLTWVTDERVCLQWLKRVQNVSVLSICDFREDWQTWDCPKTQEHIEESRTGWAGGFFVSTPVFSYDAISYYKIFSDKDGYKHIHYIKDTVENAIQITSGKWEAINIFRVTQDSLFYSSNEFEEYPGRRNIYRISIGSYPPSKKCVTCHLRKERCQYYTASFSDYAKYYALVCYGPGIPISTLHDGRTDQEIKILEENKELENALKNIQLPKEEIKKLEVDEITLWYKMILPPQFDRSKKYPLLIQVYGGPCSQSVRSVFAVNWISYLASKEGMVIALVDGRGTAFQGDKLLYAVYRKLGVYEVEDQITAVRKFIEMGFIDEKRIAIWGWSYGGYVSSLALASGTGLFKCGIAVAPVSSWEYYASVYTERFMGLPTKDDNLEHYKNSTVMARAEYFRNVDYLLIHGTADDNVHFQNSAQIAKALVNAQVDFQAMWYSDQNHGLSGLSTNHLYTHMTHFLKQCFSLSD
Procedure, shortened: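 Working solutions of 125 pM recombinant human FAP and 150 µM Z-Gly-Pro-AMC, in pH 7.5 Tris buffer with 1 M NaCl and 1 mg/mL BSA, combined with 4-fold compound dilutions and reacted 90 min at room temperature in the dark. AMC fluorescence (Ex 380/Em 460 nm) used to fit IC50.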

[3] = biological target: T3, human recombinant PREP protein (Homo sapiens, UniProt P48147); test: Inhibitory activity against PREP protease activity, reported as PREP/FAP IC50 ratio; format: biochemical; details: ratio of PREP IC50 to FAP IC50
T3 construct: purchased R&D systems 4308-SE-010
T3 sequence (P48147 1-710): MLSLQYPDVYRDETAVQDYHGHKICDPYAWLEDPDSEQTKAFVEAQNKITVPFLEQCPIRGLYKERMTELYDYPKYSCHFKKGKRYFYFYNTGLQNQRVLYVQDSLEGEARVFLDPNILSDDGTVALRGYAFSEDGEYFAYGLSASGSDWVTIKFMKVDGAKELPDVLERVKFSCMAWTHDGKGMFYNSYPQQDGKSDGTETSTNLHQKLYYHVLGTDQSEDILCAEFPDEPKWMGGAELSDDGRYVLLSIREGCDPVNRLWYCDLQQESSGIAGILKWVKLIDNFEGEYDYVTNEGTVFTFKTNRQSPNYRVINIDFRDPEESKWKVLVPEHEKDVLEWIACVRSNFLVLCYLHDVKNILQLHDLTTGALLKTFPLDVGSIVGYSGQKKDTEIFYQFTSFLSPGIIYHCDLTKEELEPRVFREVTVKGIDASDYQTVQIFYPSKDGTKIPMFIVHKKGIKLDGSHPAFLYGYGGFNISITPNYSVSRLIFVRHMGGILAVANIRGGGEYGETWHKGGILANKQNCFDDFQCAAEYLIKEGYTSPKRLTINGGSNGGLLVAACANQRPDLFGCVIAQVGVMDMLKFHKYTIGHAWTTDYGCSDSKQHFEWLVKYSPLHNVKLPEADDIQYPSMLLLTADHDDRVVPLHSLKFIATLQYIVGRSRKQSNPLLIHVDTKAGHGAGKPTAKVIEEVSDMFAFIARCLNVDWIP
Description: The human recombinant PREP protein (R&D systems, 4308-SE-010) was formulated into a 125 pM working solution with a assay buffer (25 mM Tris-HCl, 250 mM NaCl, 2.5 mM DTT, 1 mg/mL BSA), and the PREP substrate (Z-Gly-Pro-AMC (LEONBIO, 68542-93-8)) was diluted to a 125 µM PREP substrate working solution with the assay buffer. 40 µl of PREP working solution and 20 µl of compounds at different concentrations (4-fold dilution) were taken, then 40 µl of PREP substrate working solution was added, and the mixture was uniformly mixed on a shaker at room temperature for 1 min. The uniformly mixed mixture was reacted at room temperature in the dark for 90 min. Reading was made by microplate reader at excitation and emission wavelengths of 380 nm and 460 nm. The original data was saved, and the IC50 value of the compound was obtained by analyzing the data with Graphpad PRISM.

[4] = Distribution in tissues of HEK293-FAP tumor-bearing mice (gamma counter); format: in vivo, SCID mice; details: male, SCID, mouse, in vivo, 100 uCi, total radioactivity
Description: (§1) Male SCID mice (6-8 weeks old) were subcutaneously inoculated with 5 × 10^6 HEK293-FAP cells (FAP was highly expressed in HEK293 cells). 10 days later, 30 mice with tumor size of 200-300 mm^3 were randomly divided into 3 groups. Each mouse in the 3 groups was administered with compound ^177Lu-3BP-3554, compound 29 and compound 30 with a radiation dose of 100 µCi, respectively. Blood, kidney and tumor tissues were collected at time points of 4 h, 8 h, 24 h, 72 h and 168 h, and all blood samples and tissue samples were measured for radioactive counts by gamma counter.

HEK293-FAP cells = test: as above; format: in vivo, SCID mice; details: mouse, in vivo
Description: as §1

T1 sequence (P27487 whole entry): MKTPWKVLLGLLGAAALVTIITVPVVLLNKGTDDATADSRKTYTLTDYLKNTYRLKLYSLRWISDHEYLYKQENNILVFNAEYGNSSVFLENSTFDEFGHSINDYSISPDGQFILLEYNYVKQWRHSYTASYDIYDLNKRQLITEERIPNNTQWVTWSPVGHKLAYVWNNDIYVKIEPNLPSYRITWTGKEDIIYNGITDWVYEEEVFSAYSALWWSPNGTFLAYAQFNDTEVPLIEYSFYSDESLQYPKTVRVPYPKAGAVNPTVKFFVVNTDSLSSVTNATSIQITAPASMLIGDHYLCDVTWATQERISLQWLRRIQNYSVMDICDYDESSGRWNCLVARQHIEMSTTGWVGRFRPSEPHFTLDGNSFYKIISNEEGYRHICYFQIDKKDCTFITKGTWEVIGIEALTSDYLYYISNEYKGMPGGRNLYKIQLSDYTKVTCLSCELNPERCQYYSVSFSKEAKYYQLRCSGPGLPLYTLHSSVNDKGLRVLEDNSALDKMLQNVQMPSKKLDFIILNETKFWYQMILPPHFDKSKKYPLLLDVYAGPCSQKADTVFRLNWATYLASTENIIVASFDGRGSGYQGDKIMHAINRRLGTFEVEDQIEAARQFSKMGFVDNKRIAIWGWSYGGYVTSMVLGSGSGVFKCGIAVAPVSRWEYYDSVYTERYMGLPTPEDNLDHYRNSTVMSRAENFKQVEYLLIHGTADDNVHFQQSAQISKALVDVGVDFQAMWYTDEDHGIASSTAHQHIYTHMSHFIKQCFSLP

Compound	IC50 [1]	remaining at 24 h, 10 µM (in vitro)	IC50 [2]	PREP/FAP [3]	also measured
CCCCCC(=O)N[C@H]1CSCc2cc(CSCCNC(=O)CN3CCN(CC(=O)O)CCN(CC(=O)O)CCN(CC(=O)O)CC3)cc(c2)CSC[C@@H](C(=O)O)NC(=O)[C@H](Cc2ccccc2)NC(=O)[C@H](CCC(N)=O)NC(=O)[C@H]([C@@H](C)O)NC(=O)[C@@H]2CCCN2C(=O)[C@@H]2CCCN2C1=O [Compound 3BP-3554, reference compound]	> 10000 nM	87%			
CCCCCC(=O)N[C@H]1CSCc2cc(CSCCNC(=O)CN3CCN(CC(=O)O)CCN(CC(=O)O)CCN(CC(=O)O)CC3)cc(c2)CSC[C@@H](CC(=O)O)NC(=O)[C@H](Cc2cccc3ccccc23)NC(=O)[C@H](CCC(N)=O)NC(=O)[C@H]([C@@H](C)O)NC(=O)[C@@H]2CCCN2C(=O)[C@@H]2CCCN2C1=O [Compound 11, Hex-Cys-Pro-Pro-Thr-Gln-1Nal-beta-HomoCys (Cys bridge TBMB (DOTA-AET)) trifluoroacetate] (Hexanoyl-CPPTQ[1Nal][β3hC]-OH; linker 1-7 via TBMB(SCH2CH2NH-DOTA))	> 10000 nM	94%	0.26 nM		
CCCCCC(=O)N[C@H]1CSCc2cc(CSCCNC(=O)CN3CCN(CC(=O)O)CCN(CC(=O)O)CCN(CC(=O)O)CC3)cc(c2)CSC[C@@H](CC(=O)O)NC(=O)[C@H](Cc2ccccc2C(F)(F)F)NC(=O)[C@H](CCC(N)=O)NC(=O)[C@H]([C@@H](C)O)NC(=O)[C@@H]2CCCN2C(=O)[C@@H]2CCCN2C1=O [Compound 12, Hex-Cys-Pro-Pro-Thr-Gln- Phe(2-CF3)-beta-HomoCys (Cys bridge TBMB (DOTA-AET)) trifluoroacetate]	> 10000 nM	94%	0.46 nM	A (A > 10000)	
CCCCCC(=O)N[C@H]1CSCc2cc(CSCCNC(=O)CN3CCN(CC(=O)O)CCN(CC(=O)O)CCN(CC(=O)O)CC3)cc(c2)CSC[C@@H](CC(=O)N[C@@H](Cc2ccc3ccccc3c2)C(=O)O)NC(=O)[C@H](Cc2ccccc2)NC(=O)[C@H](CCC(N)=O)NC(=O)[C@H]([C@@H](C)O)NC(=O)[C@@H]2CCCN2C(=O)[C@@H]2CCCN2C1=O [Compound 13, Hex-Cys-Pro-Pro-Thr-Gln-Phe-beta-HomoCys-2Nal (Cys bridge TBMB (DOTA-AET)) trifluoroacetate]	> 10000 nM	100%	0.97 nM		
CCCCCC(=O)N[C@H]1CSCc2cccc(c2F)CSC[C@@H](CNC(=O)C[C@@H](C)NC(=O)[C@H]2CC[C@H](CNC(=O)CN3CCN(CC(=O)O)CCN(CC(=O)O)CCN(CC(=O)O)CC3)CC2)NC(=O)[C@H](Cc2ccccc2)NC(=O)[C@H](CCC(N)=O)NC(=O)[C@H]([C@@H](C)O)NC(=O)[C@@H]2CCCN2C(=O)[C@@H]2CCCN2C1=O [Compound 30]					tissue to tissue ratio at 4 h ([4]; Tumor/blood): 16.3; tissue to tissue ratio at 8 h ([4]; Tumor/blood): 32.3; tissue to tissue ratio at 24 h ([4]; Tumor/blood): 212; tissue to tissue ratio at 72 h ([4]; Tumor/blood): 1100; tissue to tissue ratio at 168 h ([4]; Tumor/blood): 484; tissue to tissue ratio at 4 h ([4]; Tumor/kidney): 6.88; tissue to tissue ratio at 8 h ([4]; Tumor/kidney): 5.56; tissue to tissue ratio at 24 h ([4]; Tumor/kidney): 5.95; tissue to tissue ratio at 72 h ([4]; Tumor/kidney): 6.98; tissue to tissue ratio at 168 h ([4]; Tumor/kidney): 11.8; injection dose%/g tissue at different time points (HEK293-FAP cells): significantly higher than that of ^177Lu-3BP-3554; tissue selectivity for kidney and blood tissues (HEK293-FAP cells): better tissue selectivity for kidney and blood tissues than ^177Lu-3BP-3554
Hex-Cys-Pro-Pro-Thr-Gln-Phe-Cys-CH2NH-cyclopentacarboxylic acid (Cys bridge TBMB (DOTA-AET)) trifluoroacetate [Compound 14]				B (10000 > B > 3300)	
Hex-Cys-Pro-Pro-Thr-Gln-Phe-Cys-CH2NHAc (Cys bridge TBMB (DOTA-AET)) trifluoroacetate [Compound 10]				A (A > 10000)	

Continued, in another order:

IC50 [1]	remaining at 24 h, 10 µM (in vitro)	IC50 [2]	PREP/FAP [3]	Compound	also measured
> 10000 nM	93%	0.67 nM	B (10000 > B > 3300)	CCCCCC(=O)N[C@H]1CSCc2cccc(c2F)CSC[C@@H](CNC(=O)C[C@H]2CC[C@H](NC(=O)CCNC(=O)CN3CCN(CC(=O)O)CCN(CC(=O)O)CCN(CC(=O)O)CC3)CC2)NC(=O)[C@H](Cc2ccccc2)NC(=O)[C@H](CCC(N)=O)NC(=O)[C@H]([C@@H](C)O)NC(=O)[C@@H]2CCCN2C(=O)[C@@H]2CCCN2C1=O [Compound 15, Hex-Cys-Pro-Pro-Thr-Gln-Phe-Cys-CH2NH-(trans-4-aminocyclohexane acetic acid-betaAla-DOTA) (Cys bridge 2,6-bis(bromomethyl)fluorobenzene) trifluoroacetate]	
> 10000 nM	96%	0.41 nM	B (10000 > B > 3300)	CCCCCC(=O)N[C@H]1CSCc2cccc(c2F)CSC[C@@H](CNC(=O)C[C@@H](C)NC(=O)[C@H]2CC[C@H](CNC(=O)CN3CCN(CC(=O)O)CCN(CC(=O)O)CCN(CC(=O)O)CC3)CC2)NC(=O)[C@H](Cc2ccccc2)NC(=O)[C@H](CCC(N)=O)NC(=O)[C@H]([C@@H](C)O)NC(=O)[C@@H]2CCCN2C(=O)[C@@H]2CCCN2C1=O [Compound 16, Hex-Cys-Pro-Pro-Thr-Gln-Phe-Cys-CH2NH-(D-beta-HomoAla-tranexamic acid-DOTA) (Cys bridge 2,6-bis(bromomethyl)fluorobenzene) trifluoroacetate]	
